For three molecules, IC50 results are on record in US20070078100A1, “Methods of detecting poly(adp-ribose) polymerase and other nad+ utilizing enzymes” (THE BOARD OF TRUSTEES OF THE UNIVERSITY OF ILLINOI, priority 2003, published 2007).

One experiment concerns the target T1, PARP-1 (Homo sapiens, UniProt P09874).
T1 construct: purchased Trevigen
Nature of the experiment: NAD+ quantitation (fluorescence) assay, determination of IC50 values for PARP inhibitors. The class given is biochemical. The method, then: This assay was also applied to determine the IC50 values of the known PARP inhibitors. For these determinations, the inhibitors, at a variety of concentrations, were added to a 96-well plate containing NAD+ and nicked DNA. PARP-1 was then added, and the reaction was allowed to proceed for 15 min. At this point acetophenone/KOH was added, which serves to both quench the PARP-1 enzymatic activity and to begin the conversion of any remaining NAD+ to the fluorophore. After 10 min at 4° C. in the presence of acetophenone/KOH, a solution of formic acid was added and the mixture was incubated in a 110° C. oven for 5 minutes.
In addition, only very low levels of NAD+ were used in this assay (100 nM). […] However, NAD+ concentrations up to 100 μM can also be used, if one desires a direct correlation with other assay methods that typically use micromolar amounts of NAD+ substrate.
The reaction was initiated by adding 10 μL of PARP at a concentration of 10 μg/mL (in PARP assay buffer), bringing the final concentration to 2 μg/mL PARP, 10 μg/mL DNA, 100 nM NAD+ with varying concentrations of inhibitors in a total volume of 50 μL. The plate was incubated for 15 min at room temperature and the amount of NAD+ was then determined by the fluorescence method as described above for the calibration curve. The average value of control wells containing only NAD+ was set as 0% PARP activity, while the average value of control wells containing NAD+ and PARP (but no inhibitor) was set as 100% PARP activity. […] All data points in FIG. 8 were determined in quadruplicate.
Graphs were analyzed using Table Curve 2D. NAD+ standard curves were fitted with a least squares linear model and inhibitor curves were fitted with a logistic dose response curve.

Another experiment has as its target PARP (Homo sapiens, UniProt P09874). The note with it: literature values, references in brackets; cited from earlier work.
[1] abbreviates: 100 nM NAD+, 2 μg/mL PARP, 10 μg/mL DNA, 15 min at room temperature, 96-well plate, read-out: IC50 value.

Where two headings read alike, the source gives them in different places.

T1 sequence (P09874 whole entry): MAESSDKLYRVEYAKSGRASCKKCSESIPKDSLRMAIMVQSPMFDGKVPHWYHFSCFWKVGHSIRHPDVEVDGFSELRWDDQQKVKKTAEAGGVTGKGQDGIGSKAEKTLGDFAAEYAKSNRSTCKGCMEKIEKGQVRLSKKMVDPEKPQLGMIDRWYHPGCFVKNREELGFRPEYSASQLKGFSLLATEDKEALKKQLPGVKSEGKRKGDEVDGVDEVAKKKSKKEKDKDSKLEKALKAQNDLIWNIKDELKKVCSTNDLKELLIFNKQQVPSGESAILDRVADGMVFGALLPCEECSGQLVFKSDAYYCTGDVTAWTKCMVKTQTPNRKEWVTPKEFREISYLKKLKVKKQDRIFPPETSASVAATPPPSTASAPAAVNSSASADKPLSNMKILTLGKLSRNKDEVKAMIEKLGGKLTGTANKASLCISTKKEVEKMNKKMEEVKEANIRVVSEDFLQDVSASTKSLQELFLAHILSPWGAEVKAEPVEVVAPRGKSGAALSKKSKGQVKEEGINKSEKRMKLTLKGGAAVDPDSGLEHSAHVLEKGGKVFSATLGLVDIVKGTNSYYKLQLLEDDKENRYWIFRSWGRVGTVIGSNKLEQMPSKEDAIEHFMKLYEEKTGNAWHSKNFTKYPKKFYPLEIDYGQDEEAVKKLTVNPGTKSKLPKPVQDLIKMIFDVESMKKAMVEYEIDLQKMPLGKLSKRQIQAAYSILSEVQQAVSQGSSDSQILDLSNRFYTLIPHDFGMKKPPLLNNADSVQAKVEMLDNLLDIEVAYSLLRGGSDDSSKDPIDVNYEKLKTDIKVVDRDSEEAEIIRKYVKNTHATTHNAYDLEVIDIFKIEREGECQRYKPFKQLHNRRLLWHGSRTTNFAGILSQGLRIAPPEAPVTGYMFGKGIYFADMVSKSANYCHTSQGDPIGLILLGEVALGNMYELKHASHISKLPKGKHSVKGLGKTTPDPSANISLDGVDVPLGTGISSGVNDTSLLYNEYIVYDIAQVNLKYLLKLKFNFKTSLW
PARP, sequence (P09874 whole entry): as above

The IC50 is the point on the concentration scale where inhibition reaches its midpoint. For `O=c1[nH]c2ccccc2c2ccccc12` [6(5H)-phenanthridinons, 6(5H)-phenanthridinone], at PARP-1 (setting [1]), the IC50 amounted to 305 nM.
As to `NC(=O)c1ccccc1` [benzamide], the IC50 on PARP-1 (setting [1]) is 1440 nM; at PARP, 1300 nM.
With `O=C1NCCc2c(OCCCCN3CCCCC3)cccc21` [DPQ, 3,4-dihydro-5-[4-(1-piperidinyl)butoxy]-1 (2B)-isoquinolinone], the IC50 against PARP-1 came out at 37 nM.
